Among the data in ChEMBL document CHEMBL5104093, “A comprehensive review on β-lapachone: Mechanisms, structural modifications, and therapeutic potentials” (Eur J Med Chem, 2021) are MIC values, retold here.

Structures are written as SMILES. ≈ marks a conversion by molar mass, not a printed value. Some results are limits rather than exact numbers.

One assay deals with Mycobacterium tuberculosis. Briefly: Antimycobacterial activity against rifampicin resistant Mycobacterium tuberculosis ATCC 35822 assessed as bacterial growth inhibition incubated for 7 days by resazurin dye based microtiter assay. The format is functional. To be noted: ATCC 35822, 168 h, time 7 day. For orientation: Alamar Blue is a resazurin reagent that responds to reducing activity.
For orientation: MIC means the smallest concentration in the dilution series that meets the test's criterion for growth inhibition. Regarding `CC1(C)CCc2c(c3ccccc3c3nc(-c4ccc([N+](=O)[O-])cc4)[nH]c23)O1`, the minimal inhibitory concentration (MIC) amounted to 1.56 µg/mL (≈ 4.18 µM).

The subject of a further assay is Mycobacterium tuberculosis. The assay can be described thus: Antimycobacterial activity against rifampicin resistant Mycobacterium tuberculosis ATCC 35338 assessed as bacterial growth inhibition incubated for 7 days by resazurin dye based microtiter assay. It is filed as functional. To be noted: ATCC 35338, 168 h, time 7 day.
For the compound `C=CCC1Cc2c(c3ccccc3c3nc4ccccc4nc23)OC1(C)C` (stereo unspecified), the minimal inhibitory concentration (MIC) stood at 0.78 µg/mL (≈ 2.2 µM).

For `CC1(C)CCc2c(c3ccccc3c3nc(-c4cccc(Br)c4)[nH]c23)O1`, the MIC was 1.56 µg/mL (≈ 3.83 µM).

Take `CC1(C)CCc2c(c3ccccc3c3nc(-c4cccc(F)c4)[nH]c23)O1`: the minimum inhibitory concentration (MIC) was 1.56 µg/mL (≈ 4.5 µM).

As to `CC1(C)CCc2c(c3ccccc3c3nc(-c4ccc([N+](=O)[O-])cc4)[nH]c23)O1`, the minimum inhibitory concentration (MIC) is over 100 µg/mL.

With `COc1ccccc1-c1nc2c([nH]1)c1c(c3ccccc32)OC(C)(C)CC1`, the MIC stood at 1.56 µg/mL (≈ 4.35 µM).

For `Cc1ccccc1-c1nc2c([nH]1)c1c(c3ccccc32)OC(C)(C)CC1`, the MIC is 1.56 µg/mL (≈ 4.56 µM).

On to `CC1(C)CCc2c(c3ccccc3c3nc(-c4cccc(C(F)(F)F)c4)[nH]c23)O1`, for which the MIC turned out to be 1.56 µg/mL (≈ 3.94 µM).

On to `Cc1ccc(-c2nc3c([nH]2)c2c(c4ccccc43)OC(C)(C)CC2)cc1`, for which the MIC worked out at 6.25 µg/mL (≈ 18.3 µM).

Turning to `CC1CCC2C(C1)c1c(c3ccccc3c3nc4ccccc4nc13)OC2(C)C` (stereo unspecified), the MIC was under 6.25 µg/mL.

For `CC1(C)Oc2c(c3nc4ccccc4nc3c3ccccc23)C=C1Br`, the minimal inhibitory concentration (MIC) was under 6.25 µg/mL.
